Measured values from US20240400579A1, “SPIROCYCLIC MODULATORS OF CHOLESTEROL BIOSYNTHESIS AND THEIR USE FOR PROMOTING REMYELINATION” (GENENTECH, INC., priority 2021, published 2024).
Where two headings read alike, the source gives them in different places.

Legend:
[1] = molecular target: human emopamil binding protein and human 7-dehydrocholesterol reductase co-expressing cell membrane (Homo sapiens (Human), UniProt Q15125); experiment: hEBP-DHCR7 radioligand filtration binding assay with [3H]-Compound 118A*; conditions: radioligand [3H]-Compound 118A*; HEK293 membrane co-expressing hEBP and DHCR7
Sequence of human emopamil binding protein and human 7-dehydrocholesterol reductase co-expressing cell membrane (Q15125 whole entry): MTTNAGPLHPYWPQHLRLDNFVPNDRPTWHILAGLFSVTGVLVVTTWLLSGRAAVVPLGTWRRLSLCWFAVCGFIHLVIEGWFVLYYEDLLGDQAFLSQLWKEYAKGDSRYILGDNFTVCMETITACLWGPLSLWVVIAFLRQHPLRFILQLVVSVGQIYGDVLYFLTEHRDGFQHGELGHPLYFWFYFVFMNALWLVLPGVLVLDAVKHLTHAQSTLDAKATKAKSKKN
Method: Membrane Preparation: human emopamil binding protein and human 7-dehydrocholesterol reductase co-expressing cells were generated by transient transfecting host human embryonic kidney (HEK) 293 cells with 2 DNA constructs containing each protein's coding sequence. Cells were suspension cultured at 37° C. with 5% CO2 in […] 293 Expression Medium (Thermofisher). Whole cell membrane was prepared by harvesting the cell pellet, adding cold membrane buffer (50 mM Tris, pH7.5, 1× Roche COMPLETE EDTA-free protease inhibitor cocktail) 10 times volume of the cell pellets weight, lysing cell pellet on ice by using Dounce homogenizer, spinning at 200 g 4° C. for 15 min, collecting supernatant and spinning again at 25000 g 4° C. for 50 min, transferring pellet to Dounce homogenizer, re-suspending pellet by homogenizing in membrane buffer on ice to reach ˜25 mg/mL, then keeping whole cell membrane aliquots at −80° C.
Compounds were prepared in a 96-well U bottom plate using an Echo550 machine and 10 mM compound DMSO stock solution, followed by an 8-dose 5-fold serial dilutions protocol with final testing compound concentration ranging from 0.06 to 5000 nM, with DMSO back fill to 100 nL/well and n=2. […] The UniFilter-96 GF/B plates were pre-treated by adding 50 μl/well of 0.3% (v/v) PEI to UniFilter-96 GF/B plates. The plates were sealed and incubated at 4° C. for 3 hrs. Then, the plates were washed with ice-cold assay buffer 3 times. The radioligand binding assay was prepared by adding assay buffer diluted hEBP-DHCR7 membrane at 66.7 μg/ml x 150 μl/well into the 96-well compound plate to reach 10 μg membrane per well. Then, the assay buffer diluted [3H]-Compound 118A* was added at 25 nM×50 μl/well. Following this, the plate was centrifuged at 1000 rpm for 30 secs. The plate was then sealed and agitated at 600 rpm at 22° C. for 5 min, and then incubated at 22° C. for 3 hrs. The incubation was stopped by transferring the binding solution to the pre-treated UniFilter-96 GF/B plate, vacuum filtrated, and then washed four times with ice-cold assay buffer. Following this, the plates were dried at 37° C. for 45 min. The plates were then sealed at the bottom. 40 μl/well of scintillation cocktail was added to the plates. A MicroBeta2 microplate counter was then used to read the plate and analyze the data. For reference and test compounds, the results are expressed as % Inhibition, using the normalization equation: N=100-100×(U−C2)/(C1−C2), where U is the unknown value, C1 is the average of high controls, and C2 is the average value of low controls. The IC50 was determined by fitting percentage of inhibition as a function of compound concentrations with Hill equation using XLfit. Results are expressed as hEBP-DHCR7 Ki (uM) in Table 4. Ki was calculated as described above.

[2] = system: zymostenol accumulation in EpiSC-derived OPCs (EBP); experiment: GC/MS-based sterol profiling, zymostenol accumulation; format: cell-based, mouse; conditions: 8 doses from 0.15 nM to 333 nM, read-out: mZymo GCMS EC50
Method: (§1) To assess effects of treatments on OPCs, all treatments were assayed in two or more independent platings of epiblast stem cell-derived OPCs (EpiSC). EpiSC-derived OPCs were obtained using in vitro differentiation protocols and culture conditions described previously (Najm et al, 2011, Nature Methods). OPCs were expanded and frozen down in aliquots. OPCs were thawed into growth conditions for at least one passage before use in further assays.
Sterols were monitored using a modified Folch wash protocol (Hubler et al, 2018, Nature). EpiSC-derived OPCs were plated at 100,000 cells per well in PO— and laminin-coated 96-well plates in N2B27 media without growth factors. After 24 hours, cells were rinsed with saline and plates were frozen. Cholesterol-d7 standard was then added to each well before drying under nitrogen stream and derivatization with 55 μl of bis(trimethylsilyl) trifluoroacetamide. After derivatization, 2 μl were analyzed by gas chromatography/mass spectrometry using an Agilent 5973 Network Mass Selective Detector equipped with a 6890 gas chromatograph system and a HP-5MS capillary column (30 m x 0.25 mm×[…]). Samples were analyzed in full scan mode using electron impact ionization; ion fragment peaks were integrated to calculate sterol abundance, and quantitation was relative to cholesterol-d7. The following ion fragments were used to quantitate each metabolite: cholesterol-d7 (465), FF-Mas (482), cholesterol (368), zymostenol (458), zymosterol (456), Desmosterol (456, 343), 7-dehydrocholesterol (456, 325), lanosterol (393), lathosterol (458), 14-dehydrozymostenol (456, 351). […] All standards were obtained from Avanti Polar Lipids unless otherwise indicated. Calibration curves were generated by injecting varying concentrations of sterol standards and maintaining a fixed amount of cholesterol-D7. For normalized zymostenol accumulation results, the total amount of zymostenol measured after drug treatment was divided by the total amount of zymostenol accumulated after 24 hr treatment with 100 nM positive control reference.

EpiSC-derived OPCs = experiment: In vitro phenotypic screening of OPCs, MBP high-content imaging; format: cell-based, mouse; conditions: percentage of MBP+ oligodendrocytes, 3 days, 0.5 nM to 1000 nM, read-out: mOPC EC50
Method: as §1
EpiSC-derived OPCs were grown and expanded in poly-L-ornithine (PO) and laminin-coated flasks in N2B27 media (DMEM/F12 (Gibco), N2-MAX (R&D Systems), B-27 (ThermoFisher), and GlutaMax (Gibco)) supplemented with FGF2 ([…], R&D systems, 233-FB-025) and PDGF-AA ([…], R&D systems, 233-AA-050) before harvesting for experiments. The cells were seeded onto poly-L-ornithine or poly-D-lysine coated CellCarrier Ultra plates (PerkinElmer) coated with laminin (Sigma, L2020) at a density of 150,000/cm^2 in N2B27 media without growth factors. For dose-response testing, a 1000× compound stock in dimethyl sulphoxide (DMSO) was added to assay plates, resulting in 8-point dose curves with final concentrations between 1000 nM and 0.5 nM. Positive controls and DMSO vehicle controls were included in each assay plate. Cells were incubated under standard conditions (37° C., 5% CO2) for 3 days and fixed with 4% paraformaldehyde (PFA) in phosphate buffered saline (PBS) for 20 min. Fixed plates were washed with PBS, permeabilized with 0.1% Triton X-100, and blocked with 10% donkey serum (v/v) in PBS for 40 min. Then, cells were labelled with MBP antibodies (Abcam, ab7349; 1:200) for 2 h at room temperature, washed with PBS, and stained with Alexa Fluor conjugated secondary antibodies (1:500) for 45 min. Nuclei were visualized by DAPI staining (Sigma; 1 μg/ml), followed by further PBS washes.
Cells and cell culture plates were imaged on the Operetta High Content Imaging and Analysis system (PerkinElmer). Analysis (PerkinElmer Harmony and Columbus software) began by identifying intact nuclei stained by DAPI. The peri-nuclear region of each cell was then cross-referenced with the mature myelin protein (MBP) stain to identify oligodendrocyte nuclei, and from this the percentage of oligodendrocytes was calculated. EC50 values were calculated using The Levenberg-Marquardt algorithm to fit a Hill equation to dose-response data (0.5 nM to 1000 nM).

Row | Ki [1] [nM] | EC50 ([2]; 24 hours) [nM] | EC50 (EpiSC-derived OPCs) [nM] | EC50 ([2]; Mus musculus, 24 h) [nM] | EC50 (EpiSC-derived OPCs; Mus musculus, 72 h) [nM] | Compound
1 | 10.1 | 2.1 | 4 | – | – | CC(Cc1ccc(F)c(F)c1)CN1CCC2(CC1)CS(=O)(=O)C2 (single isomer, unassigned) [212B*, 7-(3-(3,4-Difluorophenyl)-2-methylpropyl)-2-thia-7-azaspiro[3.5]nonane 2,2-dioxide]
2 | 9.98 | – | – | 0.95 | 1.4 | C[C@@H](Cc1ccc(C(F)(F)F)cc1)CN1CCC2(CC1)CS(=O)(=O)C2 (single isomer, unassigned) [216A*]
3 | 15.6 | – | – | 0.99 | 3.3 | C[C@H](Cc1ccc(C(F)(F)F)cc1)CN1CCC2(CC1)CS(=O)(=O)C2 (single isomer, unassigned) [216B*]
4 | 10.6 | 4.6 | 13 | – | – | C[C@H](CN1CCC2(CC1)CS(=O)(=O)C2)Oc1ccc(F)c(F)c1 (single isomer, unassigned) [221B*]
5 | 15.3 | – | – | 3.2 | 7.6 | C[C@@H](CN1CCC2(CC1)CS(=O)(=O)C2)Oc1ccc(C(F)(F)F)cc1 (single isomer, unassigned) [227A*]
6 | 9.8 | – | – | 2.1 | 2.4 | C[C@H](CN1CCC2(CC1)CS(=O)(=O)C2)Oc1ccc(C(F)(F)F)cc1 (single isomer, unassigned) [227B*]
7 | 13.9 | – | – | 2 | 5.6 | C[C@H](Cc1ccc(C(F)(F)F)cc1)CN1CC2(CCS(=O)(=O)CC2)C1 (single isomer, unassigned) [232A*]
8 | 12.7 | – | – | 5.7 | 15 | C[C@@H](Cc1ccc(C(F)(F)F)cc1)CN1CC2(CCS(=O)(=O)CC2)C1 (single isomer, unassigned) [232B*]
9 | 193 | – | – | 35 | 210 | C[C@@H](Cc1ccc(C(F)(F)F)nc1)CN1CC2(CCS(=O)(=O)CC2)C1 (single isomer, unassigned) [234B*]
10 | 19.7 | – | – | 6.1 | 19.9 | CC(C)n1nc(C(F)(F)F)cc1C[C@@H](C)CN1CCC2(C1)CS(=O)(=O)C2 (single isomer, unassigned) [235A*]
11 | 17.1 | – | – | 2.6 | 3.89 | CC(C)n1nc(C(F)(F)F)cc1C[C@H](C)CN1CCC2(C1)CS(=O)(=O)C2 (single isomer, unassigned) [235B*]
12 | 89.6 | – | – | 30.1 | 26.9 | O=S1(=O)CC2(CCN(CC[C@H](F)c3ccc(C(F)(F)F)nc3)CC2)C1 (single isomer, unassigned) [237A*]
13 | 117 | – | – | 17 | 69.1 | O=S1(=O)CC2(CCN(CC[C@@H](F)c3ccc(C(F)(F)F)nc3)CC2)C1 (single isomer, unassigned) [237B*]
14 | 15.6 | – | – | 1.5 | 10 | O=S1(=O)CC2(CCN(CC[C@@H](F)c3ccc(C(F)(F)F)cc3)C2)C1 (single isomer, unassigned) [Compound 122A]
15 | 23.6 | – | – | 4.9 | 31 | CC(C)(Cc1ccc(C(F)(F)F)nc1)CN1CC[C@]2(CCS(=O)(=O)C2)C1 (single isomer, unassigned) [Compound 148A]
16 | 39.6 | – | – | 8.3 | 26 | C[C@H](Cc1ccc(C(F)(F)F)nc1)CN1CCC2(CC1)CS(=O)(=O)C2 (single isomer, unassigned) [Compound 217]
17 | 51.9 | – | – | 6.4 | 22 | C[C@@H](Cc1ccc(C(F)(F)F)nc1)CN1CCC2(CC1)CS(=O)(=O)C2 (single isomer, unassigned) [Example 203*]
18 | 65.3 | – | – | 9.8 | 63 | C[C@H](CN1CCC2(CC1)CS(=O)(=O)C2)Oc1ccc(C(F)(F)F)nc1 (single isomer, unassigned) [Example 207B*]
19 | 10.5 | 0.49 | 1.6 | – | – | C[C@@H](Cc1ccc([C@H]2CC[C@](O)(C(F)(F)F)CC2)c(Cl)c1)CN1CCC2(C1)CS(=O)(=O)C2 (stereo in doubt) [116A*, 6-((S)-3-(3-Chloro-4-((1s,4R)-4-hydroxy-4-(trifluoromethyl)cyclohexyl)phenyl)-2-methylpropyl)-2-thia-6-azaspiro[3.4]octane 2,2-dioxide, 6-((R)-3-(3-chloro-4-((1s,4S)-4-hydroxy-4-(trifluoromethyl)cyclohexyl)phenyl)-2-methylpropyl)-2-thia-6-azaspiro[3.4]octane 2,2-dioxide]
20 | 9.31 | 0.81 | 2 | – | – | C[C@H](Cc1ccc([C@H]2CC[C@](O)(C(F)(F)F)CC2)c(Cl)c1)CN1CCC2(C1)CS(=O)(=O)C2 (stereo in doubt) [116B*, 6-((S)-3-(3-Chloro-4-((1s,4S)-4-hydroxy-4-(trifluoromethyl)cyclohexyl)phenyl)-2-methylpropyl)-2-thia-6-azaspiro[3.4]octane 2,2-dioxide, and 6-((R)-3-(3-chloro-4-((1r,4R)-4-hydroxy-4-(trifluoromethyl)cyclohexyl)phenyl)-2-methylpropyl)-2-thia-6-azaspiro[3.4]octane 2,2-dioxide]
